Experimental data published in the NIST ThermoML archive (doi:10.1016/j.jct.2014.07.018).
Numbers after ± are expanded uncertainties.

Assay: molar heat capacity at constant pressure
Conditions: 101.33 kPa, Vacuum adiabatic calorimetry

CCCCn1cc[n+](C)c1.[I-] [1-butyl-3-methylimidazolium iodide]
molar heat capacity at constant pressure [J/K/mol]
Conditions	Crystal	Glass
4.858 K	0.768 ± 0.023	–
5 K	0.845 ± 0.031	1.57 ± 0.04
5.042 K	–	1.601 ± 0.041
5.112 K	0.909 ± 0.026	–
5.32 K	–	1.862 ± 0.046
5.371 K	1.07 ± 0.029	–
5.604 K	–	2.149 ± 0.052
5.638 K	1.249 ± 0.033	–
5.895 K	–	2.463 ± 0.059
5.91 K	1.452 ± 0.037	–
6.217 K	1.701 ± 0.042	–
6.222 K	–	2.842 ± 0.066
6.56 K	2.006 ± 0.048	–
6.586 K	–	3.292 ± 0.076
6.91 K	2.343 ± 0.055	–
6.955 K	–	3.776 ± 0.085
7.265 K	2.714 ± 0.063	–
7.328 K	–	4.295 ± 0.096
7.496 K	–	4.532 ± 0.1
7.625 K	3.114 ± 0.071	–
7.705 K	–	4.838 ± 0.11
7.884 K	–	5.11 ± 0.11
7.99 K	3.553 ± 0.08	–
8.267 K	–	5.703 ± 0.12
8.357 K	4.021 ± 0.09	–
8.654 K	–	6.323 ± 0.14
8.728 K	4.513 ± 0.1	–
9.042 K	–	6.967 ± 0.15
9.104 K	5.04 ± 0.11	–
9.433 K	–	7.63 ± 0.16
9.483 K	5.597 ± 0.12	–
9.825 K	–	8.316 ± 0.18
9.868 K	6.177 ± 0.13	–
10 K	6.39 ± 0.1	8.62 ± 0.15
10.33 K	–	9.205 ± 0.11
10.36 K	6.957 ± 0.089	–
10.94 K	–	10.33 ± 0.13
10.95 K	7.92 ± 0.099	–
11.56 K	8.937 ± 0.11	11.49 ± 0.14
12.16 K	9.99 ± 0.12	–
12.18 K	–	12.66 ± 0.15
12.77 K	11.08 ± 0.13	–
12.8 K	–	13.88 ± 0.16
13.38 K	12.19 ± 0.14	–
13.42 K	–	15.11 ± 0.18
14 K	13.34 ± 0.16	–
14.05 K	–	16.37 ± 0.19
14.63 K	14.54 ± 0.17	–
14.69 K	–	17.68 ± 0.2
15 K	15.25 ± 0.17	18.31 ± 0.2
15.25 K	15.73 ± 0.18	–
15.47 K	–	19.26 ± 0.22
15.99 K	17.18 ± 0.2	–
16.42 K	–	21.23 ± 0.24
16.84 K	18.83 ± 0.21	–
17.37 K	–	23.19 ± 0.26
17.7 K	20.48 ± 0.23	–
18.32 K	–	25.15 ± 0.28
18.56 K	22.1 ± 0.25	–
19.27 K	–	27.09 ± 0.3
19.42 K	23.73 ± 0.26	–
20 K	24.83 ± 0.15	28.59 ± 0.17
20.22 K	–	29.03 ± 0.17
20.29 K	25.36 ± 0.15	–
21.48 K	–	31.59 ± 0.18
21.5 K	27.65 ± 0.16	–
23.05 K	–	34.73 ± 0.19
23.06 K	30.6 ± 0.17	–
24.62 K	33.53 ± 0.18	–
24.63 K	–	37.87 ± 0.2
25 K	34.2 ± 0.19	38.6 ± 0.2
26.19 K	36.35 ± 0.19	–
26.21 K	–	40.93 ± 0.21
27.59 K	38.83 ± 0.2	–
27.79 K	–	43.88 ± 0.22
29.09 K	41.41 ± 0.2	–
29.96 K	–	47.88 ± 0.23
30 K	42.93 ± 0.19	47.93 ± 0.22
30.68 K	44.04 ± 0.2	–
32.35 K	–	52.05 ± 0.23
32.43 K	46.84 ± 0.21	–
34.29 K	–	55.25 ± 0.25
34.33 K	49.79 ± 0.22	–
35 K	50.8 ± 0.23	56.37 ± 0.26
36.21 K	–	58.25 ± 0.26
36.25 K	52.67 ± 0.24	–
38.13 K	–	61.21 ± 0.27
38.16 K	55.41 ± 0.25	–
40 K	58.01 ± 0.26	64 ± 0.29
40.04 K	–	64.03 ± 0.28
40.07 K	58.07 ± 0.26	–
42.06 K	–	66.96 ± 0.3
42.08 K	60.84 ± 0.27	–
44.18 K	–	69.94 ± 0.31
44.19 K	63.71 ± 0.28	–
45 K	64.77 ± 0.29	71.05 ± 0.31
46.3 K	66.48 ± 0.29	72.87 ± 0.32
48.41 K	69.11 ± 0.3	–
48.42 K	–	75.66 ± 0.33
50 K	71.06 ± 0.31	77.66 ± 0.34
50.52 K	71.72 ± 0.32	–
50.54 K	–	78.37 ± 0.34
52.64 K	74.22 ± 0.33	–
52.66 K	–	80.96 ± 0.35
54.76 K	76.59 ± 0.34	–
54.78 K	–	83.48 ± 0.37
56.88 K	78.93 ± 0.35	–
56.91 K	–	85.88 ± 0.38
59.01 K	81.2 ± 0.36	–
59.04 K	–	88.27 ± 0.39
60 K	82.26 ± 0.36	89.36 ± 0.39
61.14 K	83.4 ± 0.36	–
61.17 K	–	90.59 ± 0.4
63.27 K	85.56 ± 0.37	–
63.31 K	–	92.93 ± 0.41
65.4 K	87.69 ± 0.38	–
65.45 K	–	95.14 ± 0.41
67.54 K	89.76 ± 0.39	–
67.59 K	–	97.4 ± 0.42
69.67 K	91.79 ± 0.4	–
69.73 K	–	99.56 ± 0.43
70 K	92.11 ± 0.4	99.8 ± 0.43
71.91 K	93.89 ± 0.41	–
71.97 K	–	101.8 ± 0.4
74.26 K	96.02 ± 0.42	–
74.32 K	–	104.1 ± 0.5
76.61 K	98.12 ± 0.43	–
76.67 K	–	106.3 ± 0.5
78.96 K	100.2 ± 0.4	–
